Four compounds from patent publication US5635527A, “Carboxylic acid compound having condensed ring, salt thereof and pharmaceutical use thereof” (The Green Cross Corporation, priority 1994, dated 1997) can be followed below.

Molecules are shown by their SMILES.

The test system of this experiment is human platelets. The experiment can be described thus: suppressive activity on ADP aggregation of human platelets. In kind it is cell-based. Conditions: platelet rich plasma, ADP 1-5 μM, compound added 2 minutes before ADP, read-out: Suppression of platelet aggregation (IC50). The method, then: Determination of suppressive activity on ADP aggregation of human platelets
Platelet rich plasma was prepared from the blood taken from healthy humans by centrifugation in the presence of 0.38% sodium citrate, and used for the determination.
Two minutes after the test compounds shown in Table 1 were added to the above-mentioned platelet rich plasma, ADP (adenosine-5'-diphosphate) (1-5 μM) having a concentration at which primary aggregation alone is observed was added, and the suppression of ADP aggregation by the compounds was evaluated. The percent suppression was determined by varying the concentration of the compounds and the concentration of the compound at which the aggregation was suppressed by 50% (IC50) was calculated, which was taken as the activity of the compound.

Broadly, the IC50 is the concentration at which inhibition is half-maximal. Regarding `N=C(N)c1cnc2oc(C(=O)Nc3ccc(OCC(=O)O)cc3)cc2c1` [Compound 239, 4-(5-Amidinofuro[2,3-b]pyridine-2-carbonylamino)-phenoxyacetic acid], the IC50 came to 10 nM.

As to `N=C(N)c1cnc2oc(C(=O)Nc3ccc(OCC(=O)O)nc3)cc2c1` [Compound 246, 5-(5-Amidinofuro[2,3-b]pyridine-2-carbonylamino)-2-pyridyloxyacetic acid], the IC50 is 30 nM.

With `N=C(N)c1cnc2oc(C(=O)N[C@H]3CC[C@H](OCC(=O)O)CC3)cc2c1` [Compound 255, trans-[4-(5-Amidinofuro[2,3-b]pyridine-2-carbonylamino)-cyclohexyloxy]acetic acid], the IC50 is 20 nM.

For `N=C(N)c1cnc2oc(C(=O)N[C@H]3CC[C@H](CCC(=O)O)CC3)cc2c1` [Compound 261, trans-3-[4-(5-Amidinofuro[2,3-b]pyridine-2-carbonylamino)cyclohexyl]propionic acid], the IC50 is 10 nM.
